Reference: PubChem BioAssay AID449764 (Southern Research Specialized Biocontainment Screening …, 2010)

Tested on: Mycobacterium tuberculosis H37Rv growth inhibition, no glycerol
Assay: Confirmatory growth inhibition assay, Mycobacterium tuberculosis H37Rv, absence of glycerol (AID 449764);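 note: growth read after 7 days of incubation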
Details: for IC90: measured here: IC90 growth inhibition

Structure (SMILES)	IC50	IC90
Cc1ccccc1Cn1cc(NC(=O)c2noc(C(C)C)c2[N+](=O)[O-])cn1	5.01 µM	8.45 µM
CC(=O)c1ccc(NC(=O)c2cc(CC(C)C)on2)cc1	12 µM	13.8 µM
CCOc1ccc(-c2csc(/C(C#N)=C\c3ccc(O)c([N+](=O)[O-])c3)n2)cc1	16.7 µM	> 100 µM
CC(C)OC(=O)c1ccc(NC(=S)NC(=O)c2cncc(Br)c2)cc1		> 100 µM
CC(C)(C)Nc1nc(NC(C)(C)C)nc(-n2ccnc2)n1	59.9 µM	98.5 µM
CCc1c(C)sc2nc3c(C(=O)N4CCOCC4)cc(C(=O)c4cc(F)ccc4O)cn3c(=O)c12	82.2 µM	> 100 µM
CCOC(=O)c1cc2cc3ccccc3cc2oc1=O	84.8 µM	> 100 µM
C/C(=N\NC(=O)COc1ccc(C)cc1Br)c1cc([N+](=O)[O-])cs1	24 µM	26.4 µM
COC(=O)c1cc(Sc2cccc(Cl)c2Cl)ccn1	29 µM	40.5 µM
COc1ccc(OCCCC(=O)OC(C)C(=O)Nc2ccccc2[N+](=O)[O-])cc1 (configuration not stated)	44.9 µM	> 100 µM
CCCOP(=O)(OCCC)c1c([N+](=O)[O-])cc(C(F)(F)F)cc1[N+](=O)[O-]	5.5 µM	7.7 µM
CCCSc1nn2c(=O)c3ccccc3nc2s1	14.7 µM	28.1 µM
CC(=O)OCC1O[C@@H](O[C@@H]2C[C@H]3C(C)(C)[C@H](OC(C)=O)CC[C@]3(C)[C@H]3CC[C@]45C[C@]4(CC[C@H]5[C@@H](C)C[C@@H](O)[C@H](O)C(C)(C)O)[C@@]32C)[C@H](O)[C@@H](O)[C@@H]1O (some centres not stated)	25.9 µM	35.7 µM
Cc1oc(-c2cccc(Cl)c2)nc1CN1CCC(C(=O)N2CCN(c3ccccc3F)CC2)CC1	18.7 µM	26.4 µM
Cc1ccc(C2CC(c3cccs3)=NN2C(=O)CCl)cc1 (configuration not stated)	1.42 µM	1.77 µM
CC(C)(C)c1ccc(OCCC(=O)OCC(=O)NC(=O)NC2CCCC2)cc1	11.8 µM	18.9 µM
Oc1ccccc1/C=N/NC(=S)NC1CC2CC1C1C=CCC21 (configuration not stated)	11.9 µM	18 µM
CC(C)(C)c1ccc(Cn2c(=N)n(CC(O)c3ccco3)c3ccccc32)cc1 (configuration not stated)	23.3 µM	25.6 µM
Cc1cc2[nH]c3c(c[n+](C)c4ccccc34)c2cc1C	9.9 µM	15.6 µM
Cc1ccc(S(=O)(=O)N(C)c2ccc(OCC(=O)OCc3ccc(C#N)cc3)cc2)cc1	17.3 µM	28.3 µM
CCOC(=O)C1CCN(c2nc3cc(OC)ccc3cc2C#N)CC1	83.5 µM	> 100 µM

Structure (SMILES)	IC50	IC90
Oc1ccc(N=Nc2n[nH]c(-c3ccc(Cl)cc3)n2)cc1	12.9 µM	32.4 µM
Nc1nc(Cl)cc(N2CCC(c3cc(-c4ccc(Cl)cc4Cl)n[nH]3)CC2)n1	25.9 µM	30.1 µM
COc1ccccc1N(C)S(=O)(=O)c1ccc(C(=O)Nc2ccc3nc(C)sc3c2)cc1	51.1 µM	99.8 µM
CC1=NN(c2ccccc2)C(=O)C1C(=O)c1ccccc1 (configuration not stated)	50.6 µM	78 µM
Oc1ccc(F)c2cccnc12	5.94 µM	6.56 µM
Cc1ccnc(NC(=O)COc2ccc3c(c2)CCC3)c1	85.7 µM	> 100 µM
Oc1c(C(c2ccccc2Cl)N2CCCC2)ccc2cccnc12 (configuration not stated)	31.2 µM	37.7 µM
COC(=O)COc1ccc(-c2ccccc2)cc1C=O	16.1 µM	26 µM
C(=N\Nc1ncnc2sc3c(c12)CCC3)/c1cccs1	36.9 µM	54.2 µM
Cc1cc(C)nc(-n2nc(C)cc2NC(=O)CN2CCC(C)CC2)n1	16.4 µM	35.3 µM
COc1cccc(C2C3=C(N=c4s/c(=C\c5cccc(O)c5)c(=O)n42)c2ccccc2CC3)c1OC (configuration not stated)	22.7 µM	25.6 µM
Cc1ccc(C(C)C)c(OCC(=O)OCc2c(C)noc2C)c1	4.65 µM	6.88 µM
CCCCn1cnc2c(c(-c3ccccc3)c(-c3ccccc3)n2Cc2ccco2)c1=N	94.8 µM	> 100 µM
CNc1ccc2nc3ccccc3[n+](C)c2c1	1.16 µM	1.68 µM
CCOC(=O)c1ccccc1NC(=O)COc1coc(CN2CCc3ccccc32)cc1=O	27.1 µM	47.8 µM
CCn1cc([N+](=O)[O-])c(C(=O)N2N=C(c3ccc4ccccc4c3)CC2c2ccccc2O)n1 (configuration not stated)	50.1 µM	> 100 µM
CN(CC(=O)Nc1ccccc1Br)C(=O)c1cccnc1Nc1cccc(C(F)(F)F)c1	35 µM	48.7 µM
CCOC(=O)CSc1ncnc2c1sc1nc(N3CCOCC3)c3c(c12)CCCC3	24.9 µM	27.9 µM
O=C(OCC#CCSc1nnc(-c2cccc3ccccc23)o1)c1cccs1	47.3 µM	> 100 µM
CO[C@@]12[C@H](COC(N)=O)C3=C(C(=O)C(C)=C(N)C3=O)N1C[C@@H]1N[C@@H]12	74.9 µM	> 100 µM
c1ccc(CC2CCN(C3=Nc4cccc5cccc3c45)CC2)cc1	28.3 µM	37.9 µM

Structure (SMILES)	IC50	IC90
C=CCN(CC=C)C(=S)NC(=O)c1ccc(-c2ccccc2)cc1	13.6 µM	22.4 µM
CCOC(=O)c1sc2nc3n(c(=O)c2c1C)CCC(C)CC3 (configuration not stated)	23 µM	26.4 µM
COc1cccc2c1C(=O)c1c(O)c3c(c(O)c1C2=O)C[C@@](O)(C(=O)CO)C[C@@H]3O[C@H]1C[C@H](N)[C@@H](O)[C@H](C)O1	5.87 µM	6.6 µM
COc1cc(/C=C/C(=O)c2c(O)n(CCc3ccccc3)c(=O)[nH]c2=O)ccc1O	14.3 µM	21.8 µM
COc1cnc(-c2ccccn2)nc1Oc1ccc(Cl)c2ccccc12	0.67 µM	1.38 µM
CNc1ncnc2c1ncn2[C@@H]1O[C@H](CO)[C@@H](O)[C@H]1O	3.97 µM	9.18 µM
COc1ccc(Cc2nc3ccc(C(=O)NCCCSC)cc3o2)cc1OC	43.1 µM	65.2 µM
CCc1cc(C(=O)NNC(=O)CCl)sc1C	5.03 µM	7.55 µM
NC(=O)c1ccc(N=Cc2ccc([N+](=O)[O-])s2)cc1	16.9 µM	19.8 µM
N=C1C(c2nc3ccccc3[nH]2)=C(O)CN1NC(=O)c1c[nH]c2ccccc12	26.7 µM	40.1 µM
O=c1c2ccccc2nc(/C=C/c2ccccc2)n1-c1ccc(O)cc1		> 50 µM
CN(C)CCCN(C(=O)c1cc(-c2cccs2)nc2ccccc12)c1nc2ccc(F)cc2s1	34.9 µM	54.3 µM
Cc1cc(C)n2nc(/C(C#N)=C/c3ccccn3)c(C#N)c2n1	19.4 µM	35.5 µM
CCOC(=O)c1[nH]c2ccc(F)cc2c1NC(=O)CN1CCN(C/C=C/c2ccccc2)CC1	28.4 µM	42.8 µM
COc1cc(/C=N/n2c(-c3ccc4c(c3)NC(=O)CO4)csc2=Nc2cccc(C)c2)ccc1O	37.8 µM	> 100 µM
O=C(COC(=O)c1cccs1)c1ccccc1	45.8 µM	> 100 µM
CCOC(=O)c1nnc(-c2ccccc2)nc1Sc1ccccc1Cl	90.6 µM	> 100 µM
Cc1ccc(C)c(C2C(=O)c3ccccc3C2=O)c1	16.5 µM	46.8 µM
CN1CCc2cc3c(c4c2C1Cc1ccccc1-4)OCO3 (configuration not stated)	2.35 µM	3.03 µM
CCCCCC(O)c1cccc(OCc2ccc3ccccc3n2)c1 (configuration not stated)	35.4 µM	56 µM
